Tested on: L. donovani axenic, strain MHOM-ET-67/L82 amastigotes
Assay: In vitro activity against L. donovani
Assay type: cell-based
Conditions: Leishmania donovani; L. donovani axenic amastigotes MHOM-ET-67/L82; means of 2 to 3 measurements, SD < 5%; read-out: L.d. IC50
Work on `O=C(CCn1cnc([N+](=O)[O-])n1)Nc1ccc(Oc2ccc(Cl)cc2)cc1` [Compound 6, N-(4-(4-chlorophenoxy)phenyl)-3-(3-nitro-1H-1,2,4-triazol-1-yl)propanamide] yielded an IC50 of 1150 nM.
In the case of `CN(C(=O)Cn1cnc([N+](=O)[O-])n1)c1ccc(C(F)(F)F)cc1` [Compound 2, N-methyl-2-(3-nitro-1H-1,2,4-triazol-1-yl)-N-(4-(trifluoromethyl)phenyl)acetamide], the IC50 is reported as 47700 nM.

Tested on: transgenic T. cruzi parasites expressing firefly luciferase
Assay: not given
Assay type: in vivo, Balb/c mice
Conditions: 13 mg/kg/day i.p. x 10 days
Experimental: A fast luminescence assay was used in an acute infected murine model, in which transgenic T. cruzi parasites expressing firefly luciferase were injected in 5 week-old Balb/c mice. Mice were injected with D-luciferin before imaging. Groups of 5 mice/group were treated i.p. for 10 consecutive days with each compound, at 13 or 15 mg/kg/day. […] The mean ratio of parasite levels was calculated after 5 and 10 days of treatment.
For in vivo studies, a Brazilian strain trypomastigotes from transgenic T. cruzi parasites expressing firefly luciferase were used as described before. Briefly, parasites (10^5 trypomastigotes) were injected in 5 week-old Balb/c mice (Taconic) and three days later mice were anesthesized by inhalation of isofluorane, followed by an injection with 150 mg/kg of D-luciferin potassium-salt in PBS. Mice were imaged 5–10 min after injection of luciferin with an IVIS 100 (Xenogen, Alameda, CA) and the data acquisition and analysis were performed with the software LivingImage (Xenogen) as described before. Treatment with test compounds started 4 days post infection at 13 or 15 mg/kg/day × 10 days, given i.p. The vehicle control was 2% methylcellulose +0.5% Tween 80 and groups of 5 mice/group were used. Mice were imaged after 5 and 10 days of treatment. The ratio of parasite levels was calculated for each animal dividing the luciferase signal after treatment by the luciferase signal on the first imaging (before treatment). Mean values of all animals in each group ± SD were used for plotting.
In the case of `O=C(CCn1cnc([N+](=O)[O-])n1)Nc1ccc(Oc2ccc(Cl)cc2)cc1` [Compound 6, N-(4-(4-chlorophenoxy)phenyl)-3-(3-nitro-1H-1,2,4-triazol-1-yl)propanamide], the “toxicity symptoms in treated mice” value is reported as “did not look very healthy, although no deaths occurred”.

Same assay, conditions: 13 mg/kg/day i.p. x 10 days; acute murine model; p < 0.0001
For `O=C(CCn1cnc([N+](=O)[O-])n1)Nc1ccc(Oc2ccc(Cl)cc2)cc1` [Compound 6, N-(4-(4-chlorophenoxy)phenyl)-3-(3-nitro-1H-1,2,4-triazol-1-yl)propanamide], the “parasite load after 10 days of treatment” value was “undetectable levels”.

Same assay, conditions: 13 mg/kg/day i.p.; compared to untreated control
With `O=C(CCn1cnc([N+](=O)[O-])n1)Nc1ccc(Oc2ccc(Cl)cc2)cc1` [Compound 6, N-(4-(4-chlorophenoxy)phenyl)-3-(3-nitro-1H-1,2,4-triazol-1-yl)propanamide] the “parasitic level after 5-day treatment” value was “Statistically significant reduction in parasitic level”.

Tested on: bloodstream form T.b. brucei wild type
Assay: T. brucei antiproliferating assay, wild type
Assay type: cell-based
Conditions: Trypanosoma brucei, read-out: IC50 value T.b. brucei Wild type, bloodstream form; means from 4 experiments ± SD
Experimental: The BSF of T. brucei parasites were seeded at 1 × 10^3 mL^−1 in 200 μL of growth medium containing different concentrations of nitroheterocycle. Where appropriate, induction of the TbNTR was carried out by adding tetracycline (1 μg/mL). After incubation for 3 days at 37 °C, 20 μL of Alamar blue was added to each well and the plates incubated for a further 16 h. The cell density of each culture was determined as described before and the IC50 established.
`O=C(CCn1cnc([N+](=O)[O-])n1)Nc1ccc(Oc2ccc(Cl)cc2)cc1` [Compound 6, N-(4-(4-chlorophenoxy)phenyl)-3-(3-nitro-1H-1,2,4-triazol-1-yl)propanamide] gave an IC50 of about 650 nM.

Same assay, conditions: read-out: IC50 value T.b. brucei Wild type; bloodstream form; means from 4 experiments ± SD
Work on `O=C(CCn1cnc([N+](=O)[O-])n1)Nc1ccc(Oc2ccc(Cl)cc2)cc1` [Compound 6, N-(4-(4-chlorophenoxy)phenyl)-3-(3-nitro-1H-1,2,4-triazol-1-yl)propanamide] yielded an IC50 of 640 ± 20 nM.

Tested on: not given
Assay: not given
Conditions: not given
Work on `CN(C(=O)Cn1cnc([N+](=O)[O-])n1)c1ccc(C(F)(F)F)cc1` [Compound 2, N-methyl-2-(3-nitro-1H-1,2,4-triazol-1-yl)-N-(4-(trifluoromethyl)phenyl)acetamide] yielded a melting point of 133 to 134 °C.

Tested on: T.b. rhodesiense, strain STIB 900 trypomastigotes
Assay: In vitro activity against T. b. rhodesiense
Assay type: cell-based
Conditions: IC50 in L6 cells/IC50 in T.b. rhodesiense
Experimental: (§1) Compounds in Table 1 were screened for anti-parasitic activity against three trypanosomatids: T. cruzi, T. b. rhodesiense and Leishmania donovani and compared with previously made analogs shown in orange and designated with a. […] In addition, compounds were tested for toxicity in L6 rat skeletal myoblasts, the host cells for T. cruzi amastigotes, in order to calculate a selectivity index for each parasite [SI = IC50L6/IC50parasite] (Table 1). The TDR (Special Programme for Research and Training in Tropical Diseases, World Health Organization) criteria were adopted to interpret antiparasitic activity and selectivity.
(§2) In vitro activity against T. cruzi, T. b. rhodesiense, L. donovani and cytotoxicity assessment using L6 cells (rat skeletal myoblasts) was determined using a 96-well plate format as previously described. Data were analyzed with the graphic program Softmax Pro (Molecular Devices, Sunnyvale, CA, USA), which calculated IC50 values by linear regression from the sigmoidal dose inhibition curves.
With `O=C(CCn1cnc([N+](=O)[O-])n1)Nc1ccc(Oc2ccc(Cl)cc2)cc1` [Compound 6, N-(4-(4-chlorophenoxy)phenyl)-3-(3-nitro-1H-1,2,4-triazol-1-yl)propanamide] the “SI (T.b.r.)” value was 418.

Same assay, conditions: T. b. rhodesiense
With `CN(C(=O)Cn1cnc([N+](=O)[O-])n1)c1ccc(C(F)(F)F)cc1` [Compound 2, N-methyl-2-(3-nitro-1H-1,2,4-triazol-1-yl)-N-(4-(trifluoromethyl)phenyl)acetamide] the “anti-HAT activity class (TDR criteria)” value was “inactive”.

Same assay, conditions: Trypanosoma brucei; T.b. rhodesiense STIB 900 trypomastigotes; means of 2 to 3 measurements, SD < 5%; read-out: T.b.r. IC50
For `O=C(CCn1cnc([N+](=O)[O-])n1)Nc1ccc(Oc2ccc(Cl)cc2)cc1` [Compound 6, N-(4-(4-chlorophenoxy)phenyl)-3-(3-nitro-1H-1,2,4-triazol-1-yl)propanamide], the IC50 was 41 nM.
In the case of `CN(C(=O)Cn1cnc([N+](=O)[O-])n1)c1ccc(C(F)(F)F)cc1` [Compound 2, N-methyl-2-(3-nitro-1H-1,2,4-triazol-1-yl)-N-(4-(trifluoromethyl)phenyl)acetamide], the IC50 is reported as 37400 nM.

Same assay, conditions: propanamide vs acetamide analog
With `O=C(CCn1cnc([N+](=O)[O-])n1)Nc1ccc(Oc2ccc(Cl)cc2)cc1` [Compound 6, N-(4-(4-chlorophenoxy)phenyl)-3-(3-nitro-1H-1,2,4-triazol-1-yl)propanamide] the “fold more potent against T. b. rhodesiense than the corresponding acetamide” value was 32 fold.

Tested on: not listed separately
Assay: Cytotoxicity in the host L6 cells
Assay type: cell-based, rat
Conditions: rat, L6 cells (rat skeletal myoblasts); cytotoxicity in host L6 cells; read-out: Cyt. L6 IC50
Experimental: as §1, §2
`O=C(CCn1cnc([N+](=O)[O-])n1)Nc1ccc(Oc2ccc(Cl)cc2)cc1` [Compound 6, N-(4-(4-chlorophenoxy)phenyl)-3-(3-nitro-1H-1,2,4-triazol-1-yl)propanamide] showed an IC50 of 17300 nM.
Work on `CN(C(=O)Cn1cnc([N+](=O)[O-])n1)c1ccc(C(F)(F)F)cc1` [Compound 2, N-methyl-2-(3-nitro-1H-1,2,4-triazol-1-yl)-N-(4-(trifluoromethyl)phenyl)acetamide] yielded an IC50 of 254000 nM.

Tested on: L6 cells (rat skeletal myoblasts)
Assay: Cytotoxicity in the host L6 cells
Assay type: cell-based
Conditions: compared with 2a
Experimental: as §1, §2
In the case of `CN(C(=O)Cn1cnc([N+](=O)[O-])n1)c1ccc(C(F)(F)F)cc1` [Compound 2, N-methyl-2-(3-nitro-1H-1,2,4-triazol-1-yl)-N-(4-(trifluoromethyl)phenyl)acetamide], the “fold decrease in toxicity against L6 cells compared to 2a” value is reported as 2 fold.

Tested on: T. cruzi, strain Tulahuen C4 amastigotes
Assay: In vitro activity against T. cruzi
Assay type: cell-based
Conditions: IC50 in L6 cells/IC50 in T. cruzi
Experimental: The concentration of compound that inhibits parasite growth by 50% (IC50) was calculated from dose response curves for each parasite (Table 1). In addition, compounds were tested for toxicity in L6 rat skeletal myoblasts, the host cells for T. cruzi amastigotes, in order to calculate a selectivity index for each parasite [SI = IC50L6/IC50parasite]
In vitro activity against T. cruzi, T. b. rhodesiense, L. donovani and cytotoxicity assessment using L6 cells (rat skeletal myoblasts) was determined using a 96-well plate format as previously described [37]. Data were analyzed with the graphic program Softmax Pro (Molecular Devices, Sunnyvale, CA, USA), which calculated IC50 values by linear regression from the sigmoidal dose inhibition curves.
For `O=C(CCn1cnc([N+](=O)[O-])n1)Nc1ccc(Oc2ccc(Cl)cc2)cc1` [Compound 6, N-(4-(4-chlorophenoxy)phenyl)-3-(3-nitro-1H-1,2,4-triazol-1-yl)propanamide], the “SI (T. c.)” value was 3343.
For `CN(C(=O)Cn1cnc([N+](=O)[O-])n1)c1ccc(C(F)(F)F)cc1` [Compound 2, N-methyl-2-(3-nitro-1H-1,2,4-triazol-1-yl)-N-(4-(trifluoromethyl)phenyl)acetamide], the “SI (T. c.)” value was about 165.

Same assay, conditions: Trypanosoma cruzi; T. cruzi Tulahuen C4 amastigotes; means of 2 to 3 measurements, SD < 5%; read-out: T. c. IC50
With `O=C(CCn1cnc([N+](=O)[O-])n1)Nc1ccc(Oc2ccc(Cl)cc2)cc1` [Compound 6, N-(4-(4-chlorophenoxy)phenyl)-3-(3-nitro-1H-1,2,4-triazol-1-yl)propanamide] the IC50 was 5 nM.
`CN(C(=O)Cn1cnc([N+](=O)[O-])n1)c1ccc(C(F)(F)F)cc1` [Compound 2, N-methyl-2-(3-nitro-1H-1,2,4-triazol-1-yl)-N-(4-(trifluoromethyl)phenyl)acetamide] showed an IC50 of 1540 nM.

Same assay, conditions: compared with 2a
In the case of `CN(C(=O)Cn1cnc([N+](=O)[O-])n1)c1ccc(C(F)(F)F)cc1` [Compound 2, N-methyl-2-(3-nitro-1H-1,2,4-triazol-1-yl)-N-(4-(trifluoromethyl)phenyl)acetamide], the “fold decrease in antichagasic activity compared to 2a” value is reported as 1.6 fold.

Same assay, conditions: compared with 3
In the case of `CN(C(=O)Cn1cnc([N+](=O)[O-])n1)c1ccc(C(F)(F)F)cc1` [Compound 2, N-methyl-2-(3-nitro-1H-1,2,4-triazol-1-yl)-N-(4-(trifluoromethyl)phenyl)acetamide], the “fold more potent towards T. cruzi amastigotes than 2-nitroimidazole counterpart 3” value is reported as 32 fold.

Same assay, conditions: fold antichagasic potency relative to Bnz (T. cruzi IC50 ratio)
Work on `O=C(CCn1cnc([N+](=O)[O-])n1)Nc1ccc(Oc2ccc(Cl)cc2)cc1` [Compound 6, N-(4-(4-chlorophenoxy)phenyl)-3-(3-nitro-1H-1,2,4-triazol-1-yl)propanamide] yielded a Bnz/comp of 441.
For `CN(C(=O)Cn1cnc([N+](=O)[O-])n1)c1ccc(C(F)(F)F)cc1` [Compound 2, N-methyl-2-(3-nitro-1H-1,2,4-triazol-1-yl)-N-(4-(trifluoromethyl)phenyl)acetamide], the Bnz/comp was 1.4.

Tested on: bloodstream form T.b. brucei recombinant parasites expressing wild type (-tet) or elevated (+tet) levels of TbNTR
Assay: microbe, parasite or virus in culture
Assay type: cell-based
Conditions: Trypanosoma brucei, read-out: IC50 value T.b. brucei TbNTR (+tet)
Experimental: The BSF of T. brucei parasites were seeded at 1 × 10^3 mL^−1 in 200 μL of growth medium containing different concentrations of nitroheterocycle. Where appropriate, induction of the TbNTR was carried out by adding tetracycline (1 μg/mL). After incubation for 3 days at 37 °C, 20 μL of Alamar blue was added to each well and the plates incubated for a further 16 h. The cell density of each culture was determined as described before [20] and the IC50 established.
With `O=C(CCn1cnc([N+](=O)[O-])n1)Nc1ccc(Oc2ccc(Cl)cc2)cc1` [Compound 6, N-(4-(4-chlorophenoxy)phenyl)-3-(3-nitro-1H-1,2,4-triazol-1-yl)propanamide] the IC50 was 340 nM.

Same assay, conditions: Trypanosoma brucei, read-out: IC50 value T.b. brucei TbNTR (-tet)
`O=C(CCn1cnc([N+](=O)[O-])n1)Nc1ccc(Oc2ccc(Cl)cc2)cc1` [Compound 6, N-(4-(4-chlorophenoxy)phenyl)-3-(3-nitro-1H-1,2,4-triazol-1-yl)propanamide] showed an IC50 of 620 ± 30 nM.

Tested on: purified his-tagged recombinant TbNTR
Assay: Enzymatic activity with type I TbNTR
Assay type: biochemical, T. brucei
Conditions: substrate 100 μM, NADH 100 μM
Experimental: Enzyme specific activity was measured as oxidized NADH (nmol) per min per mg of protein. […] As we have reported before with other classes of 3-nitrotriazole-based antitrypanosomal compounds, no correlation between anti-HAT activity and TbNTR specific activity was observed, [13], [15], [16], [17], [18].
Recombinant TbNTR was prepared and assayed as previously described, [39]. The specific activity of purified his-tagged TbNTR was assessed spectrophotometrically at 340 nm using various nitrotriazole substrates (100 μM) and NADH (100 μM) and expressed as nmol NADH oxidized min^−1 mg^−1 of enzyme.
In the case of `O=C(CCn1cnc([N+](=O)[O-])n1)Nc1ccc(Oc2ccc(Cl)cc2)cc1` [Compound 6, N-(4-(4-chlorophenoxy)phenyl)-3-(3-nitro-1H-1,2,4-triazol-1-yl)propanamide], the “TbNTR specific enzyme activity, fold greater than benznidazole” value is reported as at most 4 fold.
